Laboratory results taken from patent US20180194762A1 (Pharmacyclics LLC, priority 2017, published 2018).

How the values were obtained:
Assay type in all cases: biochemical
Btk = molecular target: T1, Btk (Homo sapiens, UniProt Q06187); test: Btk in vitro inhibitory activity (one of Method A TR-FRET, Method B electrophoretic mobility shift, Method C radiometric filter binding); conditions: wild-type Btk; read-out: Btk-WT IC50
T1 construct: purified from insect cells as a full-length construct containing a N-terminal 6X-His tag; His6 (N); made in house; host or cells: insect cells (Method C)
T1 sequence (Q06187 whole entry): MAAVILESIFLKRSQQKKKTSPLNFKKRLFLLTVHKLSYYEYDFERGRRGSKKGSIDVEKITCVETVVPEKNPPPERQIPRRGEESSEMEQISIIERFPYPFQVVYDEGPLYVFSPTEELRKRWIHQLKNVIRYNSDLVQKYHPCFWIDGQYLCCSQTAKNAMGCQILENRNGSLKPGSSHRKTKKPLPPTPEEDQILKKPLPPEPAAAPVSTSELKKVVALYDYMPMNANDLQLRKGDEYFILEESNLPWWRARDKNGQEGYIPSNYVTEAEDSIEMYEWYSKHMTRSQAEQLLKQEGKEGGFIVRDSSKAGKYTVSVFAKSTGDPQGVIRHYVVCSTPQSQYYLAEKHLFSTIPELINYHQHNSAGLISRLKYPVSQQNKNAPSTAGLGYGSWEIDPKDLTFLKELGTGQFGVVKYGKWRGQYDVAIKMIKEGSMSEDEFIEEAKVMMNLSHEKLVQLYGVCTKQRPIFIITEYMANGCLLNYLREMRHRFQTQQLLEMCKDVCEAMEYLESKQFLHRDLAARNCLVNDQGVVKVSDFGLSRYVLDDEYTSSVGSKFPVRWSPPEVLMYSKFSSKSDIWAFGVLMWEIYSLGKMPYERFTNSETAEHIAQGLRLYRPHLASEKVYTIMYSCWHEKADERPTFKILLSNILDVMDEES
Procedure, shortened: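 Three alternative formats were used. A radiometric filter-binding read used 8 nM full-length His-BTK with 0.2 mg/mL poly(Glu-Tyr) 4:1 (C); microfluidic separation of 1 μM FAM-peptide by 1 nM BTK gave IC50 from 12-point curves (B); TR-FRET at Km ATP, 0.5 nM Btk, gave Ki(app)-derived IC50 (A).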

TEC = molecular target: T2, TEC (Homo sapiens, UniProt P42680); test: Inhibition of a panel of kinases (in vitro HotSpot kinase assay, 33P-ATP, 1 μM ATP); conditions: HotSpot kinase assay, 1 μM ATP
T2 sequence (P42680 1-631): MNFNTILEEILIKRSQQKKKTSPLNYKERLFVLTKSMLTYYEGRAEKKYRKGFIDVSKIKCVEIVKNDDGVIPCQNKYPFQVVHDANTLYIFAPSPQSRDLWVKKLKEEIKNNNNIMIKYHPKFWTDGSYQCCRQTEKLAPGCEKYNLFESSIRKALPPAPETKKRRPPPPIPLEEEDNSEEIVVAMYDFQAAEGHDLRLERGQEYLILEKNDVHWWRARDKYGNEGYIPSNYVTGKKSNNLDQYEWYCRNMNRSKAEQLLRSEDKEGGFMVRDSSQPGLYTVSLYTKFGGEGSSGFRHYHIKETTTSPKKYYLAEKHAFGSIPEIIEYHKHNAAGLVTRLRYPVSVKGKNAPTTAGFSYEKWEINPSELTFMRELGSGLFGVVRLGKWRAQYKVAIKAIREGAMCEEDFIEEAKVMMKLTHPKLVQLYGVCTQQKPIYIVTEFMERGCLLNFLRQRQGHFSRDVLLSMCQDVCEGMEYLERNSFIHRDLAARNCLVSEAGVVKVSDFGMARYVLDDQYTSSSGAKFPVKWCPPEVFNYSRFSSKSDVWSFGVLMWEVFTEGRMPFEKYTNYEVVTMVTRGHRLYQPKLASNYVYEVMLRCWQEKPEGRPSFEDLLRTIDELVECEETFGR
Procedure, shortened: (§1)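 At 1 μM ATP spiked with 33P-ATP, substrate phosphorylation by the purified enzymes gives the extent of inhibition.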

panel of kinases = molecular target: T3, panel of kinases (Homo sapiens, UniProt P51813); test: Inhibition of a panel of kinases (in vitro HotSpot kinase assay, 33P-ATP, 1 μM ATP), other kinases; conditions: BMX wild-type, read-out: BMX-WT IC50
T3 sequence (P51813 1-675): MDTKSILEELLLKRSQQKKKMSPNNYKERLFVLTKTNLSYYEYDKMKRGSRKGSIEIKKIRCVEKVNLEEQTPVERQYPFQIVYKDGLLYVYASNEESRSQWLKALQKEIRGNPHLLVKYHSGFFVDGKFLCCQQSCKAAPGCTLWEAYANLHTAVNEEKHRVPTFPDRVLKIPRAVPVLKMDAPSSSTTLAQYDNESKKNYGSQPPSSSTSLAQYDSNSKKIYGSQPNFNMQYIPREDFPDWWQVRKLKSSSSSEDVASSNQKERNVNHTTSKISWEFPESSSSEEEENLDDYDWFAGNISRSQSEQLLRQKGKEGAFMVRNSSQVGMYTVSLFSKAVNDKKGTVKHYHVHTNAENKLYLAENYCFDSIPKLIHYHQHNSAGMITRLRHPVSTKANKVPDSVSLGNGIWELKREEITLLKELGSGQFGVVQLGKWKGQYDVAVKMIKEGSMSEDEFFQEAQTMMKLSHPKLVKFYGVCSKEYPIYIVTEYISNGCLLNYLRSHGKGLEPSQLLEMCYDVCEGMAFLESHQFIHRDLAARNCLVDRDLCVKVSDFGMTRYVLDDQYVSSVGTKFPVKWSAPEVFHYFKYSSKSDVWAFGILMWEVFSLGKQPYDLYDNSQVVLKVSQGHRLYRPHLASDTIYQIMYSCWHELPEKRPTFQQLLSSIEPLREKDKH
Procedure, shortened: as §1

Structure (SMILES)	IC50 (Btk) [nM]	IC50 (TEC) [nM]	IC50 (panel of kinases) [nM]
C=CC(=O)N[C@@H]1CCN(c2n[nH]c3nccc(-c4ccc(CNC(=O)c5cc(C(C)(C)C)on5)c(F)c4)c23)C1 [Example 308, 5-tert-butyl-N-{[2-fluoro-4-(3-{(3R)-3-[(prop-2-enoyl)amino]pyrrolidin-1-yl}-1H-pyrazolo[3,4-b]pyridin-4-yl)phenyl]methyl}-1,2-oxazole-3-carboxamide]	0.0594	47	35.6
CN(C)C/C=C/C(=O)N[C@@H]1CCN(c2n[nH]c3nccc(-c4ccc(CNC(=O)c5cc(C(C)(C)C)on5)c(F)c4)c23)C1 [Example 309, 5-tert-butyl-N-[(4-{3-[(3R)-3-{[(2E)-4-(dimethylamino)but-2-enoyl]amino}pyrrolidin-1-yl]-1H-pyrazolo[3,4-b]pyridin-4-yl}-2-fluorophenyl)methyl]-1,2-oxazole-3-carboxamide]	0.434	1070	1010
C=CC(=O)N1CCC(Nc2n[nH]c3nccc(-c4ccc(CNCc5noc(C(C)(C)C)n5)c(F)c4)c23)C1 (stereo not drawn) [Example 310, 1-[3-({4-[4-({[(5-tert-butyl-1,2,4-oxadiazol-3-yl)methyl]amino}methyl)-3-fluorophenyl]-1H-pyrazolo[3,4-b]pyridin-3-yl}amino)pyrrolidin-1-yl]prop-2-en-1-one]	106	3040	471
CC(C)(C)c1nc(C(=O)NCc2ccc(-c3ccnc4[nH]nc(N[C@@H]5CC[C@H](N)C5)c34)cc2F)no1 [Example 315, N-{[4-(3-{[(1R,3S)-3-aminocyclopentyl]amino}-1H-pyrazolo[3,4-b]pyridin-4-yl)-2-fluorophenyl]methyl}-5-tert-butyl-1,2,4-oxadiazole-3-carboxamide]	3.79	2250	2580
C=CC(=O)N[C@H]1CCCC[C@@H]1Nc1n[nH]c2nccc(-c3ccc(CNC(=O)c4cc(C(C)(C)C)on4)c(F)c3)c12 [Example 318, 5-tert-butyl-N-({2-fluoro-4-[3-({(1S,2S)-2-[(prop-2-enoyl)amino]cyclohexyl}amino)-1H-pyrazolo[3,4-b]pyridin-4-yl]phenyl}methyl)-1,2-oxazole-3-carboxamide]	26.4	8830	3030
C=CC(=O)N[C@H]1CC[C@@H](Nc2n[nH]c3nccc(-c4ccc(CNC(=O)c5noc(C(C)(C)C)n5)c(F)c4)c23)C1 [Example 320, 5-tert-butyl-N-({2-fluoro-4-[3-({(1R,3S)-3-[(prop-2-enoyl)amino]cyclopentyl}amino)-1H-pyrazolo[3,4-b]pyridin-4-yl]phenyl}methyl)-1,2,4-oxadiazole-3-carboxamide]	0.0637	58.5	86.7
C=CC(=O)N[C@@H]1CC[C@H](C)N(c2n[nH]c3nccc(-c4ccc(CNC(=O)c5cc(C(C)(C)C)on5)c(F)c4)c23)C1 [Example 323, 5-tert-butyl-N-{[2-fluoro-4-(3-{(2S,5R)-2-methyl-5-[(prop-2-enoyl)amino]piperidin-1-yl}-1H-pyrazolo[3,4-b]pyridin-4-yl)phenyl]methyl}-1,2-oxazole-3-carboxamide]	7.4	734	445
C=CC(=O)N[C@@H]1CCN(c2n[nH]c3nccc(-c4ccc(CNC(=O)c5ccc(C(C)(C)O)cc5)c(F)c4)c23)C1 [Example 325, N-{[2-fluoro-4-(3-{(3R)-3-[(prop-2-enoyl)amino]pyrrolidin-1-yl}-1H-pyrazolo[3,4-b]pyridin-4-yl)phenyl]methyl}-4-(2-hydroxypropan-2-yl)benzamide]	0.163	31.3	87.1
CN(C)C(=O)N1CC[C@@H](Nc2n[nH]c3nccc(-c4ccc(CNC(=O)c5coc(C6CC6)n5)c(F)c4)c23)C1 [Example 329, 2-cyclopropyl-N-{[4-(3-{[(3R)-1-(dimethylcarbamoyl)pyrroli-din-3-yl]amino}-1H-pyrazolo[3,4-b]pyridin-4-yl)-2-fluorophenyl]methyl}-1,3-oxazole-4-carboxamide]	307	5720	5900
CC(C)(C)c1noc(C(=O)NCc2ccc(-c3ccnc4[nH]nc(N5CCC(N)C5)c34)cc2F)n1 (stereo not drawn) [Example 330, N-({4-[3-(3-aminopyrrolidin-1-yl)-1H-pyrazolo[3,4-b]pyridin-4-yl]-2-fluorophenyl}methyl)-3-tert-butyl-1,2,4-oxadiazole-5-carboxamide]	0.626	1320	1230
C=CC(=O)N[C@@H]1CCN(c2n[nH]c3nccc(-c4ccc(CNC(=O)c5nc(C(C)(C)C)no5)c(F)c4)c23)C1 [Example 331, 3-tert-butyl-N-{[2-fluoro-4-(3-{(3R)-3-[(prop-2-enoyl)amino]pyrrolidin-1-yl}-1H-pyrazolo[3,4-b]pyridin-4-yl)phenyl]methyl}-1,2,4-oxadiazole-5-carboxamide]	0.0353	30	33.2
CNC1CCN(c2n[nH]c3nccc(-c4ccc(CNC(=O)c5nc(C(C)(C)C)no5)c(F)c4)c23)C1 (stereo not drawn) [Example 333, 3-tert-butyl-N-[(2-fluoro-4-{3-[3-(methylamino)pyrrolidin-1-yl]-1H-pyrazolo[3,4-b]pyridin-4-yl}phenyl)methyl]-1,2,4-oxadiazole-5-carboxamide]	1.26	4360	4470
CN(Cc1ccc(-c2ccnc3[nH]nc(N4CC[C@@H](N)C4)c23)cc1F)C(=O)c1nc(C(C)(C)C)no1 [Example 334, (R)-N-({4-[3-(3-aminopyrrolidin-1-yl)-1H-pyrazolo[3,4-b]pyridin-4-yl]-2-fluorophenyl}methyl)-3-tert-butyl-N-methyl-1,2,4-oxadiazole-5-carboxamide]	1.43	4170	1920
C=CC(=O)N[C@@H]1CCN(c2n[nH]c3nccc(-c4ccc(CN(C)C(=O)c5nc(C(C)(C)C)no5)c(F)c4)c23)C1 [Example 335, 3-tert-butyl-N-{[2-fluoro-4-(3-{(3R)-3-[(prop-2-enoyl)amino]pyrrolidin-1-yl}-1H-pyrazolo[3,4-b]pyridin-4-yl)phenyl]methyl}-N-methyl-1,2,4-oxadiazole-5-carboxamide]	0.0513	57.7	61.3
CNC1CCN(c2n[nH]c3nccc(-c4ccc(CN(C)C(=O)c5nc(C(C)(C)C)no5)c(F)c4)c23)C1 (stereo not drawn) [Example 337, 3-tert-butyl-N-[(2-fluoro-4-{3-[3-(methylamino)pyrrolidin-1-yl]-1H-pyrazolo[3,4-b]pyridin-4-yl}phenyl)methyl]-N-methyl-1,2,4-oxadiazole-5-carboxamide]	2.35	8030	5200
C=CC(=O)N(C)[C@@H]1CCN(c2n[nH]c3nccc(-c4ccc(CN(C)C(=O)c5nc(C(C)(C)C)no5)c(F)c4)c23)C1 [Example 338, 3-tert-butyl-N-{[2-fluoro-4-(3-{(3R)-3-[methyl(prop-2-enoyl)amino]pyrrolidin-1-yl}-1H-pyrazolo[3,4-b]pyridin-4-yl)phenyl]methyl}-N-methyl-1,2,4-oxadiazole-5-carboxamide]	0.0678	22.7	28.3
C=CC(=O)N1CC[C@@H](Nc2n[nH]c3nccc(-c4ccc(CNC(=O)c5cc(Cl)on5)c(F)c4)c23)C1 [Example 342, 5-chloro-N-{[2-fluoro-4-(3-{[(3R)-1-(prop-2-enoyl)pyrrolidin-3-yl]amino}-1H-pyrazolo[3,4-b]pyridin-4-yl)phenyl]methyl}-1,2-oxazole-3-carboxamide]	3.77	210	28.8
